Test results published in patent US20070128217A1 (priority 2003, published 2007).

Key:
[1] = system: antibodies in sera from SARS patients (sera 1a, 1b, 2, 6, 37, 62, London, SARS-yellow, SARS-green); format: binding, human; design: Binding of serum 6 to linear peptides of protein X1 of SARS-CoV Urbani / Binding of serum 37 to linear peptides of protein X1 of SARS-CoV Urbani / Binding of serum 6 to looped/cyclic peptide (PEPSCAN-ELISA) / Binding of serum 37 to looped/cyclic peptide (PEPSCAN-ELISA) / Binding of serum 37 to looped/cyclic peptides of protein X1 of SARS-CoV Urbani / Binding of serum 6 to linear peptides of protein X2 / Binding of serum 37 to linear peptides of protein X2 / Binding of serum 37 to looped/cyclic peptides of protein X2 of SARS-CoV Urbani / Binding of serum 6 to linear peptides of protein M of SARS-CoV Urbani / Binding of serum 37 to linear peptides of protein M of SARS-CoV Urbani / Binding of serum 6 to looped/cyclic peptides of protein M of SARS-CoV Urbani / Binding of serum 37 to looped/cyclic peptides of protein M of SARS-CoV Urbani / Binding of serum 6 to linear peptides of protein X3 of SARS-CoV Urbani / Binding of serum 37 to linear peptides of protein X3 of SARS-CoV Urbani / Binding of serum 37 to looped/cyclic peptides of protein X3 of SARS-CoV Urbani / Binding of serum 6 to linear peptides of protein X4 of SARS-CoV Urbani / Binding of serum 37 to linear peptides of protein X4 of SARS-CoV Urbani / Binding of serum 37 to looped/cyclic peptides of protein X4 of SARS-CoV Urbani / Binding of serum 6 to linear peptides of protein X5 of SARS-CoV Urbani / Binding of serum 37 to linear peptides of protein X5 of SARS-CoV Urbani / Binding of serum 37 to looped/cyclic peptides of protein X5 of SARS-CoV Urbani / Binding of serum 6 to linear peptides of protein N of SARS-CoV Urbani / Binding of serum 37 to linear peptides of protein N of SARS-CoV Urbani / Binding of serum 6 to linear peptide (PEPSCAN-ELISA) / Binding of serum 1a to looped/cyclic peptides of protein N of SARS-CoV Urbani / Binding of serum 1b to looped/cyclic peptides of protein N of SARS-CoV Urbani / Binding of serum 2 to looped/cyclic peptides of protein N of SARS-CoV Urbani / Binding of serum 6 to looped/cyclic peptides of protein N of SARS-CoV Urbani / Binding of serum 37 to looped/cyclic peptides of protein N of SARS-CoV Urbani / Binding of serum 62 to looped/cyclic peptides of protein N of SARS-CoV Urbani / Binding of serum London to looped/cyclic peptides of protein N of SARS-CoV Urbani / Binding of serum SARS-green to looped/cyclic peptides of protein N of SARS-CoV Urbani: unit not given here
[2] = system: rabbit serum obtained by immunizing a rabbit with the SARS-CoV strain Frankfurt 1; format: binding; design: Binding of a rabbit serum to linear peptides / Binding of a rabbit serum to looped peptides / Rabbit serum linear peptides / Rabbit serum looped peptides / Binding of a rabbit serum to linear peptides of protein N of SARS-CoV Urbani (Rabbit serum linear peptides) / Binding of a rabbit serum to looped/cyclic peptides of protein N of SARS-CoV Urbani (Rabbit serum looped peptides): unit not given here

In the case of ATKIIALNKRWQLAL, the “Binding of serum 1a to linear peptides of protein X1 of SARS-CoV Urbani” value (from here on “Binding of serum 1a … of SARS-CoV Urbani”) [1] is reported as 0.7, the “Binding of serum 1a to looped/cyclic peptide (PEPSCAN-ELISA)” value [1] is reported as 0.6 and the “Binding of serum 1b to linear peptides of protein X1 of SARS-CoV Urbani” value (shortened to “Binding of serum 1b … of SARS-CoV Urbani”) [1] is reported as 0.6. The “Binding of serum 1b to looped/cyclic peptide (PEPSCAN-ELISA)” value [1] was 0.4, the “Binding of serum 2 to linear peptides of protein X1 of SARS-CoV Urbani” value [1] was 0.6 and the “Binding of serum 2 to looped/cyclic peptide (PEPSCAN-ELISA)” value [1] was 0.5. For the same sequence, the “Binding of serum 6 to linear peptides of protein X1 of SARS-CoV Urbani” value [1] was 0.7, the “Binding of serum 6 to looped/cyclic peptide (PEPSCAN-ELISA)” value [1] was 0.5 and the “Binding of serum 37 to linear peptides of protein X1 of SARS-CoV Urbani” value [1] was 0.8. For the same sequence, the “Binding of serum 37 to looped/cyclic peptide (PEPSCAN-ELISA)” value [1] was 0.6, the “Binding of serum 62 to linear peptides of protein X1 of SARS-CoV Urbani” value [1] was 0.8 and the “Binding of serum 62 to looped/cyclic peptide (PEPSCAN-ELISA)” value [1] was 0.7. The “Binding of serum London to linear peptides of protein X1 of SARS-CoV Urbani” value (“Binding of serum London … of SARS-CoV Urbani” below) [1] was 0.4, the “Binding of serum London to looped/cyclic peptide (PEPSCAN-ELISA)” value [1] was 0.3 and the “Binding of serum SARS-green to linear peptides of protein X1 of SARS-CoV Urbani” value (from here on “Binding of serum SARS-green … of SARS-CoV Urbani”) [1] was 0.3. The “Binding of serum SARS-green to looped/cyclic peptide (PEPSCAN-ELISA)” value [1] was 0.3, the “Binding of serum SARS-yellow to linear peptides of protein X1 of SARS-CoV Urbani” value [1] was 0.7 and the “Binding of serum SARS-yellow to looped/cyclic peptide (PEPSCAN-ELISA)” value [1] was 0.6. For the same sequence, the “Recognition of the peptide by the rabbit serum” value (shortened to “Recognition of the peptide”) [2] was “recognized”.

In the case of AVFQSATKIIALNKR, the “Binding of serum 1a … of SARS-CoV Urbani” value [1] is reported as 0.8, the “Binding of serum 1a to looped/cyclic peptide (PEPSCAN-ELISA)” value [1] is reported as 0.4 and the “Binding of serum 1b … of SARS-CoV Urbani” value [1] is reported as 0.6. The “Binding of serum 1b to looped/cyclic peptide (PEPSCAN-ELISA)” value [1] was 0.4, the “Binding of serum 2 to linear peptides of protein X1 of SARS-CoV Urbani” value [1] was 0.6 and the “Binding of serum 2 to looped/cyclic peptide (PEPSCAN-ELISA)” value [1] was 0.6. For the same sequence, the “Binding of serum 6 to linear peptides of protein X1 of SARS-CoV Urbani” value [1] was 0.8, the “Binding of serum 6 to looped/cyclic peptide (PEPSCAN-ELISA)” value [1] was 0.7 and the “Binding of serum 37 to linear peptides of protein X1 of SARS-CoV Urbani” value [1] was 0.7. For the same sequence, the “Binding of serum 37 to looped/cyclic peptide (PEPSCAN-ELISA)” value [1] was 0.6, the “Binding of serum 62 to linear peptides of protein X1 of SARS-CoV Urbani” value [1] was 0.6 and the “Binding of serum 62 to looped/cyclic peptide (PEPSCAN-ELISA)” value [1] was 0.6. For the same sequence, the “Binding of serum London … of SARS-CoV Urbani” value [1] was 0.3, the “Binding of serum London to looped/cyclic peptide (PEPSCAN-ELISA)” value [1] was 0.9 and the “Binding of serum SARS-green … of SARS-CoV Urbani” value [1] was 0.3. The “Binding of serum SARS-green to looped/cyclic peptide (PEPSCAN-ELISA)” value [1] was 0.2, the “Binding of serum SARS-yellow to linear peptides of protein X1 of SARS-CoV Urbani” value [1] was 0.5 and the “Binding of serum SARS-yellow to looped/cyclic peptide (PEPSCAN-ELISA)” value [1] was 0.4. For the same sequence, the “Recognition of the peptide” value [2] was “recognized”.

CPSGTYEGNSPFNPL was tested, and the “Rabbit serum linear peptides” value [2] was 0.5 and the “Rabbit serum looped peptides” value [2] was 0.7.

In the case of CWYLHEGHQTAAFRD, the “Rabbit serum linear peptides” value [2] is reported as 0.3 and the “Rabbit serum looped peptides” value [2] is reported as 0.4.

With FQSATKIIALNKRWQ the “Binding of serum 1a … of SARS-CoV Urbani” value [1] was 0.8, the “Binding of serum 1a to looped/cyclic peptide (PEPSCAN-ELISA)” value [1] was 0.5 and the “Binding of serum 1b … of SARS-CoV Urbani” value [1] was 0.6. For the same sequence, the “Binding of serum 1b to looped/cyclic peptide (PEPSCAN-ELISA)” value [1] was 0.3, the “Binding of serum 2 to linear peptides of protein X1 of SARS-CoV Urbani” value [1] was 0.6 and the “Binding of serum 2 to looped/cyclic peptide (PEPSCAN-ELISA)” value [1] was 0.4. The “Binding of serum 6 to linear peptides of protein X1 of SARS-CoV Urbani” value [1] was 0.6, the “Binding of serum 6 to looped/cyclic peptide (PEPSCAN-ELISA)” value [1] was 0.5 and the “Binding of serum 37 to linear peptides of protein X1 of SARS-CoV Urbani” value [1] was 0.7. For the same sequence, the “Binding of serum 37 to looped/cyclic peptide (PEPSCAN-ELISA)” value [1] was 0.5, the “Binding of serum 62 to linear peptides of protein X1 of SARS-CoV Urbani” value [1] was 0.7 and the “Binding of serum 62 to looped/cyclic peptide (PEPSCAN-ELISA)” value [1] was 0.5. For the same sequence, the “Binding of serum London … of SARS-CoV Urbani” value [1] was 0.3, the “Binding of serum London to looped/cyclic peptide (PEPSCAN-ELISA)” value [1] was 0.2 and the “Binding of serum SARS-green … of SARS-CoV Urbani” value [1] was 0.4. For the same sequence, the “Binding of serum SARS-green to looped/cyclic peptide (PEPSCAN-ELISA)” value [1] was 0.3, the “Binding of serum SARS-yellow to linear peptides of protein X1 of SARS-CoV Urbani” value [1] was 0.4 and the “Binding of serum SARS-yellow to looped/cyclic peptide (PEPSCAN-ELISA)” value [1] was 0.2. For the same sequence, the “Recognition of the peptide” value [2] was “recognized”.

GHLRMAGHPLGRCDI was tested, and the “Rabbit serum linear peptides” value [2] was 0.4 and the “Rabbit serum looped peptides” value [2] was 0.7.

With GHPLGRCDTKDLPKE the “Rabbit serum linear peptides” value [2] was 0.3 and the “Rabbit serum looped peptides” value [2] was 0.0.

In the case of GNSPFHPLADNKFAL, the “Rabbit serum linear peptides” value [2] is reported as 0.5 and the “Rabbit serum looped peptides” value [2] is reported as 1.0.

GTHITMTTVYHITVS was tested, and the “Binding of a rabbit serum to linear peptides” value [2] was 2.1 and the “Binding of a rabbit serum to looped peptides” value (from here on “Binding … to looped peptides”) [2] was 0.4.

With HEGHQTAAFRDVLVV the “Rabbit serum linear peptides” value [2] was 0.2 and the “Rabbit serum looped peptides” value [2] was 0.8.

With IARCWYLHEGHQTAA the “Rabbit serum linear peptides” value [2] was 0.7 and the “Rabbit serum looped peptides” value [2] was 0.3.

IIRGHLRMAGHPLGR was tested, and the “Rabbit serum linear peptides” value [2] was 0.6 and the “Rabbit serum looped peptides” value [2] was 2.0.

In the case of IMRCWLCWKGKSKNP, the “Binding of a rabbit serum to linear peptides” value [2] is reported as 0.1 and the “Binding … to looped peptides” value [2] is reported as 0.3.

For LFAGTHITMTTVYHI, the “Binding of a rabbit serum to linear peptides” value [2] was 0.6 and the “Binding … to looped peptides” value [2] was 0.5.

With MMPTTLFAGTHITMT the “Binding of a rabbit serum to linear peptides” value [2] was 0.6 and the “Binding … to looped peptides” value [2] was 0.6.

MPTTLFAGTHITMTT was tested, and the “Binding of a rabbit serum to linear peptides” value [2] was 0.7 and the “Binding … to looped peptides” value [2] was 0.3.

With MVQTCTPNVTINCQD the “Rabbit serum linear peptides” value [2] was 0.5 and the “Rabbit serum looped peptides” value [2] was 0.2.

With NASPASTVHATATIP the “Binding of a rabbit serum to linear peptides” value [2] was 0.6 and the “Binding … to looped peptides” value [2] was 0.3.

With NSPFHPLADNKFALT the “Rabbit serum linear peptides” value [2] was 0.5 and the “Rabbit serum looped peptides” value [2] was 0.7.

PASTVHATATIPLQA was tested, and the “Binding of a rabbit serum to linear peptides” value [2] was 0.9 and the “Binding … to looped peptides” value [2] was 0.5.

With PTTLFAGTHITMTTV the “Binding of a rabbit serum to linear peptides” value [2] was 0.8 and the “Binding … to looped peptides” value [2] was 0.4.

In the case of SPASTVHATATIPLQ, the “Binding of a rabbit serum to linear peptides” value [2] is reported as 1.0 and the “Binding … to looped peptides” value [2] is reported as 0.4.

For STVHATATIPLQASL, the “Binding of a rabbit serum to linear peptides” value [2] was 0.6 and the “Binding … to looped peptides” value [2] was 0.5.

In the case of TITVEELKQLLEQWN, the “Recognition of the peptide” value [2] is reported as “recognized”.

TLFAGTHITMTTVYH was tested, and the “Binding of a rabbit serum to linear peptides” value [2] was 0.7 and the “Binding … to looped peptides” value [2] was 0.5.

TTLFAGTHITMTTVY was tested, and the “Binding of a rabbit serum to linear peptides” value [2] was 0.6 and the “Binding … to looped peptides” value [2] was 0.3.

VEELKQLLEQWNLVI was tested, and the “Recognition of the peptide” value [2] was “recognized”.

In the case of YEGNSPFHPLADNKF, the “Rabbit serum linear peptides” value [2] is reported as 0.6 and the “Rabbit serum looped peptides” value [2] is reported as 0.5.

In the case of YLHEGHQTAAFRDVL, the “Rabbit serum linear peptides” value [2] is reported as 0.2 and the “Rabbit serum looped peptides” value [2] is reported as 0.6.
